Laboratory results from US20050191308A1 (priority 1999, published 2005).

Test system: M. tuberculosis (Erdman)
Conditions: in vivo

## CCCCCCCCCCCCCCCCCC[N+](C)(C)CCCCCCCCCCCCCCCCCC.[Br-] [DDA]
  Log10 resistance, Lung, Experiment I: <0.05 log10
  Log10 resistance, Spleen, Experiment I: <0.05 log10
